Test results reported in the supplement of paper PMC11451515.

Legend:
Assay in all cases: AUC of viability dose-response curve (% viability x log10 dose units); higher = less sensitive
Conditions in all cases: 48 h
[1] = system: SEM cells
In short: (§1)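 Medium-adapted leukemia cells in 1536-well plates, at 500 or 1000 cells/well, were incubated for 48 h at 37°C with library compounds in DMSO at 11 threefold doses from 47 μM to 0.79 nM. CellTiter-Glo One luminescence normalised per plate to DMSO and cell-free wells was fitted with a four-parameter log-logistic model over log10 doses. Area under the curve was integrated from this fit by trapezoidal rule, with curves beyond full viability scaled and failed quality-control curves removed.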

[2] = system: NOMO1
In short: as §1

[3] = system: P12-Ichikawa
In short: as §1

[4] = RPMI 5 mM glucose + 10% dialyzed FBS

| SMILES | AUC of viability dose-response curve ([1]; HPLM + 10% dialyzed FBS) | AUC of viability dose-response curve ([1]; RPMI 5 mM glucose + 10% FBS) | AUC of viability dose-response curve [1, 4] | AUC of viability dose-response curve ([2]; HPLM + 10% dialyzed FBS) | AUC of viability dose-response curve ([2]; RPMI 5 mM glucose + 10% FBS) | AUC of viability dose-response curve [2, 4] | AUC of viability dose-response curve ([3]; HPLM + 10% dialyzed FBS) | AUC of viability dose-response curve ([3]; RPMI 5 mM glucose + 10% FBS) | AUC of viability dose-response curve [3, 4] |
| --- | --- | --- | --- | --- | --- | --- | --- | --- | --- |
| CCCCCCCCOc1ccccc1C(=O)Nc1ccc(C(=O)OCC[N+](C)(CC)CC)cc1 | 435 | 414 | 460 | 446 | 401 | 413 | 437 | 444 | 408 |
| CCCc1nc2c(C)cc(-c3nc4ccccc4n3C)cc2n1Cc1ccc(-c2ccccc2C(=O)O)cc1 | 456 | 463 | 472 | 446 | 463 | 465 | 470 | 382 | 465 |
| NCCCC(O)(P(=O)(O)O)P(=O)(O)O.O.O.O.[Na+] | 402 | 366 | 382 | 416 | 439 | 456 | 395 | 421 | 398 |
| COCCCOc1ccnc(C[S+]([O-])c2nc3ccccc3[nH]2)c1C (stereo not drawn) |  |  |  | 467 | 475 | 460 | 464 | 450 | 449 |
| CNC(=O)c1ccc(N2C(=S)N(c3ccc(C#N)c(C(F)(F)F)c3)C(=O)C2(C)C)cc1F |  |  |  | 457 | 472 | 460 | 453 | 456 | 457 |
| CO[C@H]1/C=C/O[C@@]2(C)Oc3c(C)c(O)c4c(O)c(c(/C=N/N5CCN(C)CC5)c(O)c4c3C2=O)NC(=O)/C(C)=C\C=C\[C@H](C)[C@H](O)[C@@H](C)[C@@H](O)[C@@H](C)[C@H](OC(C)=O)[C@@H]1C |  |  |  | 431 | 461 | 461 | 441 | 445 | 430 |
| CN1CCN(Cc2ccc(NC(=O)Nc3ccc(Oc4cc(NC(=O)C5CC5)ncn4)cc3)cc2C(F)(F)F)CC1 |  |  |  | 271 | 278 | 275 | 285 | 289 | 291 |
| O=C(O)[C@@H](c1ccc(OCc2ccc3ccccc3n2)cc1)C1CCCC1 |  |  |  | 466 | 470 | 454 | 450 | 435 | 458 |
| O=[N+]([O-])c1ccc(Nc2ccccc2-c2ccccc2)c2nonc12 |  |  |  | 451 | 432 | 418 | 432 | 432 | 433 |
| C/C(=C\c1csc(C)n1)[C@@H]1C[C@@H]2O[C@@H]2CCC[C@H](C)[C@H](O)[C@@H](C)C(=O)C(C)(C)[C@@H](O)CC(=O)O1 |  |  |  | 146 | 93 | 138 |  |  |  |
| CCN1\C=C(C(O)=O)/C(=O)C2=C1C=C(N3CCN(C)CC3)C(=C2)F | 472 | 458 | 450 |  |  |  | 437 | 437 | 426 |
| O=C(c1ccc(/C=C/c2n[nH]c3ccccc23)cc1)N1CCNCC1 |  |  |  | 434 | 387 | 383 | 332 | 331 | 346 |
| O=[S+]([O-])(O)c1ccc2cc(/N=N/c3cc([S+](=O)([O-])O)c4cccnc4c3O)ccc2c1 |  |  |  | 455 | 462 | 460 | 462 | 463 | 458 |
| FC(F)(F)C1=CC=C2C(SCCCCCO\C3=C\O\C(CN4CCOCC4)=C/C3=O)=CC=NC2=C1 |  |  |  | 470 | 477 | 469 | 464 | 457 | 461 |
| C=CC(=O)Nc1cccc(Oc2nc(Nc3ccc(N4CCN(C)CC4)cc3OC)ncc2Cl)c1 |  |  |  | 325 | 355 | 362 | 374 | 351 | 365 |
| COc1ccc2c(OCc3nnc4ccc(-c5ccccc5)nn34)ccnc2c1 |  |  |  | 443 | 471 | 466 | 459 | 477 | 428 |
| CO[C@H]1/C=C/O[C@@]2(C)Oc3c(C)c(O)c4c(O)c(c(/C=N\N5CCN(C6CCCC6)CC5)c(O)c4c3C2=O)NC(=O)/C(C)=C\C=C\[C@H](C)[C@H](O)[C@@H](C)[C@@H](O)[C@@H](C)[C@H](OC(C)=O)[C@@H]1C |  |  |  | 308 | 300 | 304 |  |  |  |
| FC1=CC=C(CN2\C=C/C=C(/C(=O)N[C@@H](COC3=CC4=C(NC(=O)N4)C=C3)C5=CC=CC=C5)C2=O)C=C1F | 373 | 409 | 365 |  |  |  | 430 | 365 | 375 |
| NC(=O)c1ccc(-c2nc(-c3ccc4c(c3)OCO4)c(-c3ccccn3)[nH]2)cc1 |  |  |  | 473 | 466 | 472 | 457 | 429 | 452 |
| COc1ccc(C(=O)CC(=O)c2ccc(C(C)(C)C)cc2)cc1 |  |  |  | 449 | 458 | 465 | 471 | 473 | 476 |
